Results: publication PMC9697339, “Pulmonary Safety Profile of Esc Peptides and Esc-Peptide-Loaded Poly(lactide-co-glycolide) Nanoparticles: A Promising Therapeutic Approach for Local Treatment of Lung Infectious Diseases” (Pharmaceutics, 2022)
Square brackets hold non-standard residues; d marks the D form. Peptide text beside a SMILES is read from it.

Columns and labels:
[1] = cited from earlier work
Excerpt: This last feature is not shown by any traditional antibiotic and is expected to accelerate the healing of a damaged lung epithelium, especially in CF lungs, where wound-healing processes are highly compromised. Interestin ...

CD1 mice [2] = assay: Mouse toxicity: histopathology after intratracheal instillation; assay type: in vivo
Procedure: Five-week-old female wild-type CD1 mice were anesthetized by isoflurane inhalation and instilled intratracheally with 1.5 mg/kg (corresponding to 300 μM) of Esc(1-21)-1c in the free or encapsulated form in 50 μL of PBS. Mice instilled with 50 μL of PBS or bare PVA-PLGA NPs were included for control. […] Tissues were fixed in situ with 4% paraformaldehyde for 10 min with open chest cavity. They were then embedded in paraffin, and 5 µm-thick tissue slices were prepared by staining in hematoxylin and eosin and analyzed for pathological severity. In parallel, another group of seven animals was anesthetized by isoflurane inhalation and instilled intratracheally with escalating concentrations up to 7 mg/kg Esc(1-21)-1c in 50 μL of PBS and monitored for survival to determine the MTDs.

[3] = Stability in bronchoalveolar lavage fluid (BAL); assay type: in vitro ADME, mouse
Procedure: Bronchoalveolar lavage fluid (BAL) was collected from male and female C57BL/6 mice (4–5 months old) according to the procedure described in [31, 32]. Mice were euthanized by means of CO2 narcosis; a small incision at the level of the neck was made and a blunt needle connected to a syringe was inserted into the trachea. Then, lungs were washed with 1 mL of sterile PBS. BAL samples from each mouse were pooled, centrifuged at 1000 rpm (corresponding to […]) for 5 min, and stored at −80 °C. The supernatant was used for stability tests.
Peptides were dissolved in 400 µL of PBS at a concentration of 300 µM, and added to an equal volume of BAL at a final concentration of 150 µM. At different time points, 150 μL aliquots were withdrawn and added to 500 µL of acetonitrile, and then centrifuged. The supernatants were diluted with 160 μL of 0.1% trifluoroacetic acid (TFA)—water and analyzed by RP-HPLC and mass spectrometry. Liquid chromatography was performed on a Phenomenex Jupiter C18 analytical column (300 Å, 5 μm, 250 × 4.6 mm) in a 30 min gradient, using 0.1% TFA in water as solvent A and acetonitrile as solvent B. Mass spectrometry analysis of diluted samples was performed with a Bruker Daltonic-ultraflex-matrix-assisted laser desorption ionization tandem time-of-flight (MALDI-TOF/TOF) mass spectrometer.

[4] = tested on: lungs of healthy CD1 mice; assay: Lung gene expression (RNA-seq) after intratracheal instillation; assay type: in vivo, mouse; conditions: i.t. 0.1 mg/kg (20 μM), 24 h, vs PBS-treated animals
Procedure: All animal experiments were carried out based on a protocol (n. 20087639) approved by the Institutional Animal Care and Use Committee of the University of Pittsburgh according to the National Institutes of Health (NIH) guide for the care and use of laboratory animals. Seven-week-old female wild-type CD1 mice were anesthetized by isoflurane inhalation and instilled intratracheally with 50 µL of peptide solution (0.1 mg/kg, i.e., 20 μM) or PVA-PLGA NP suspension (either bare NPs or NPs loaded with each peptide at 0.1 mg/kg), in PBS. Control mice were given 50 µL of PBS without peptide. After 24 h, mice were euthanized for lung tissue isolation to extract RNA for differential expression analysis (sequencing work was performed by Novogene US Marketing).

CD1 mice [5] = assay: Maximum tolerated dosage (MTD) and therapeutic index; assay type: in vivo, mouse
Procedure: Five-week-old female wild-type CD1 mice were anesthetized by isoflurane inhalation and instilled intratracheally with 1.5 mg/kg (corresponding to 300 μM) of Esc(1-21)-1c in the free or encapsulated form in 50 μL of PBS. Mice instilled with 50 μL of PBS or bare PVA-PLGA NPs were included for control. After 1 day and 14 days, mice were euthanized for tissue isolation and examined for histopathology. Tissues were fixed in situ with 4% paraformaldehyde for 10 min with open chest cavity. They were then embedded in paraffin, and 5 µm-thick tissue slices were prepared by staining in hematoxylin and eosin and analyzed for pathological severity. In parallel, another group of seven animals was anesthetized by isoflurane inhalation and instilled intratracheally with escalating concentrations up to 7 mg/kg Esc(1-21)-1c in 50 μL of PBS and monitored for survival to determine the MTDs.

CC[C@H](C)[C@H](NC(=O)CN)C(=O)N[C@@H](Cc1ccccc1)C(=O)N[C@@H](CO)C(=O)N[C@@H](CCCCN)C(=O)N[C@@H](CC(C)C)C(=O)N[C@@H](C)C(=O)NCC(=O)N[C@@H](CCCCN)C(=O)N[C@@H](CCCCN)C(=O)N[C@H](C(=O)N[C@@H](CCCCN)C(=O)N[C@@H](CC(N)=O)C(=O)N[C@H](CC(C)C)C(=O)N[C@@H](CC(C)C)C(=O)N[C@H](C(=O)N[C@H](CO)C(=O)NCC(=O)N[C@@H](CC(C)C)C(=O)N[C@@H](CCCCN)C(=O)NCC(N)=O)[C@@H](C)CC)[C@@H](C)CC [Esc(1-21)-1c] (H-GIFSKLAGKKIKN[dL]LI[dS]GLKG-NH2)
resistance to enzymatic degradation compared with Esc(1-21) [1]: more resistant to enzymatic degradation | lung histology: inflammatory response or lung tissue damage (CD1 mice [2]; CD1 mice, i.t. 1.5 mg/kg (~300 µM) peptide free or encapsulated, or corresponding amount of bare NPs, 1 day and 14 days, H&E): did not detect any inflammatory response | histology of other organs (liver and kidneys) (CD1 mice [2]; CD1 mice, i.t. 1.5 mg/kg free or encapsulated, 1 day and 14 days, vs control): no visible tissue injury, necrosis, or alteration in cell density | histology of liver, spleen and kidneys (CD1 mice [2]; mice, i.t. 7 mg/kg, 48 h, vs control): no alteration in the tissue structure | lung histopathology: recruitment of inflammatory cells (CD1 mice [2]; mice, i.t. 7 mg/kg, within 48 h, vs PBS-treated mice): did not reveal significant recruitment of inflammatory cells | time in BAL at which the peak of the full-length peptide (2185 Da) is still detected ([3]; mouse (C57BL/6) BAL supernatant mixed 1:1 with peptide in PBS, 300 μM (method: final 150 µM), time points 6 and 24 h, acetonitrile work-up, RP-HPLC C18 and MALDI-TOF/TOF): ≥ 24 h | time of incubation with BAL after which the full-length peptide (2185 Da) is detectable ([3]; mouse BAL, high peptide concentration (as for 7 mg/kg), mass spectra (Figure S5)): ≥ 48 h | Log2FC, gene Chil1 (up) [4]: 34.248 | Log2FC, gene Dynlt1f (up) [4]: 19.702 | Log2FC, gene Eif4a-ps4 (up) [4]: 17.867 | Log2FC, gene Rpl26 (up) [4]: 20.049 | Log2FC, gene Snhg11 (down) [4]: −1.949 | range of motion (CD1 mice [5]; 1 h and 24 h after i.t. instillation at 7 mg/kg): maintained the same range of motion | maximum tolerated dosage (highest dosage tested, well-tolerated) (CD1 mice [5]; i.t. instillation, increasing concentrations from 1.5 to 7 mg/kg in 50 μL PBS, survival monitored for 14 days): ≥ 7 mg/kg | survival (CD1 mice [5]; i.t. up to 7 mg/kg, monitored for 14 days): remained viable for the entire duration of the experiment
